Source: PubChem BioAssay AID196 (DTP/NCI, 2004)
“And” between values parts separate entries of the source, which are not always exact repeats. Equal entries are not always repeated. Toxic doses and inconclusive results are not listed. The calls were made as follows: active = survival T/C of 150% or more; inactive = T/C below 125% in these data.

Test system: BDF1 mice, intracerebral B16 melanoma, median survival T/C
Assay: NCI In Vivo Anticancer Drug Screen. Data for tumor model B16 Melanoma (intracerebral) in B6D2F1 (BDF1) mice
Details: endpoint: median survival time, higher = longer survival
Procedure: The antitumor activity of compounds was measured in mice bearing transplantable tumors. Survival or tumor size were measured and the results are expressed as the measurement made in the treated group (T) divided by the measurement made in the vehicle treated control group (C). The tumor model used in this assay is B16 Melanoma (intracerebral) in B6D2F1 (BDF1) mice

[1] = dose: 0.5 mg/kg/injection, schedule: Q01DX009 (ip), vehicle: saline
[2] = dose: 1.0 mg/kg/injection, schedule: Q01DX009 (ip), vehicle: saline
[3] = dose: 2.0 mg/kg/injection, schedule: Q01DX009 (ip), vehicle: saline
[4] = dose: 4.0 mg/kg/injection, schedule: Q01DX009 (ip), vehicle: saline
[5] = dose: 2.0 mg/kg/injection, schedule: Q01DX009 (ip), vehicle: water
[6] = dose: 0.25 mg/kg/injection, schedule: Q01DX009 (ip), vehicle: saline

Measured: T/C

COC1=C(N2CC2)C(=O)C(OC)=C(N2CC2)C1=O
inactive: [1] 115 % of control | [2] 107 % of control | [3] 117 % of control | [4] 86 % of control

COc1ccc2cc1Oc1ccc(cc1)C[C@H]1c3cc(c(OC)cc3CCN1C)Oc1c(OC)c(OC)cc3c1[C@H](C2)N(C)CC3
inactive: dose: 50.0 mg/kg/injection, schedule: Q01DX005 (ip), vehicle: Klucel (hydroxypropylcellulose) (HPC) 100 % of control | dose: 100.0 mg/kg/injection, schedule: Q01DX005 (ip), vehicle: Klucel (hydroxypropylcellulose) (HPC) 98 % of control and 103 % of control | dose: 200.0 mg/kg/injection, schedule: Q01DX005 (ip), vehicle: Klucel (hydroxypropylcellulose) (HPC) 119 % of control and 101 % of control | dose: 400.0 mg/kg/injection, schedule: Q01DX005 (ip), vehicle: Klucel (hydroxypropylcellulose) (HPC) 95 % of control and 113 % of control

O=C1C(N2CC2)=C(N2CC2)C(=O)C(N2CC2)=C1N1CC1
inactive: dose: 10.0 micrograms/kg/injection, schedule: Q01DX009 (ip), vehicle: saline 120 % of control | dose: 20.0 micrograms/kg/injection, schedule: Q01DX009 (ip), vehicle: saline 107 % of control | dose: 80.0 micrograms/kg/injection, schedule: Q01DX009 (ip), vehicle: saline 95 % of control

COc1ccc2c(c1)CCC(c1ccccc1)=C2c1ccc(OCCN2CCCC2)cc1
inactive: dose: 3.0 mg/kg/injection, schedule: Q01DX005 (ip), vehicle: Klucel (hydroxypropylcellulose) (HPC) 97 % of control | dose: 6.0 mg/kg/injection, schedule: Q01DX005 (ip), vehicle: Klucel (hydroxypropylcellulose) (HPC) 97 % of control | dose: 12.0 mg/kg/injection, schedule: Q01DX005 (ip), vehicle: Klucel (hydroxypropylcellulose) (HPC) 95 % of control and 105 % of control | dose: 24.0 mg/kg/injection, schedule: Q01DX005 (ip), vehicle: Klucel (hydroxypropylcellulose) (HPC) 124 % of control and 96 % of control and 108 % of control | dose: 48.0 mg/kg/injection, schedule: Q01DX005 (ip), vehicle: Klucel (hydroxypropylcellulose) (HPC) 92 % of control and 112 % of control | dose: 96.0 mg/kg/injection, schedule: Q01DX005 (ip), vehicle: Klucel (hydroxypropylcellulose) (HPC) 100 % of control

Cc1[nH]c(=O)[nH]c(=O)c1N(CCF)CCCl
inactive: [5] 107 % of control | dose: 4.0 mg/kg/injection, schedule: Q01DX009 (ip), vehicle: water 104 % of control | dose: 8.0 mg/kg/injection, schedule: Q01DX009 (ip), vehicle: water 112 % of control | dose: 16.0 mg/kg/injection, schedule: Q01DX009 (ip), vehicle: water 104 % of control | dose: 32.0 mg/kg/injection, schedule: Q01DX009 (ip), vehicle: water 102 % of control

COc1cc([C@@H]2c3cc4c(cc3[C@@H](OC3OC5CO[C@@H](c6cccs6)OC5C(O)C3O)[C@H]3COC(=O)[C@H]23)OCO4)cc(OC)c1O (stereo not given in full)
inactive: [6] 96 % of control | [1] 107 % of control | dose: 0.5 mg/kg/injection, schedule: Q01DX009 (ip), vehicle: water 91 % of control | [2] 95 % of control and 100 % of control | dose: 1.0 mg/kg/injection, schedule: Q01DX009 (ip), vehicle: water 104 % of control | [3] 100 % of control and 108 % of control | [5] 95 % of control | [4] 104 % of control

Nc1nc2c(c(=O)[nH]1)N(C=O)C(CNc1ccc(C(=O)N[C@@H](CCC(=O)O)C(=O)O)cc1)CN2 (stereo not given in full)
inactive: dose: 128.0 mg/kg/injection, schedule: Q01DX005 (ip), vehicle: saline 102 % of control | dose: 256.0 mg/kg/injection, schedule: Q01DX005 (ip), vehicle: saline 95 % of control | dose: 512.0 mg/kg/injection, schedule: Q01DX005 (ip), vehicle: saline 87 % of control

CO[C@H](C(=O)[C@@H](O)[C@@H](C)O)[C@@H]1Cc2cc3cc(OC4CC(OC5CC(O)C(O)C(C)O5)C(O)C(C)O4)c(C)c(O)c3c(O)c2C(=O)[C@H]1OC1CC(OC2CC(OC3CC(C)(O)C(O)C(C)O3)C(O)C(C)O2)C(O)C(C)O1 (stereo not given in full)
inactive: dose: 0.13 mg/kg/injection, schedule: Q01DX009 (ip), vehicle: saline 91 % of control and 95 % of control | [6] 109 % of control and 112 % of control | [1] 91 % of control and 100 % of control | [2] 87 % of control and 90 % of control

O=CC(NC(=O)N(CCF)N=O)C(O)C(O)C(O)CO (stereo not given)
inactive: dose: 26.7 mg/kg/injection, schedule: Q01DX001 (ip), vehicle: Klucel (hydroxypropylcellulose) (HPC) 107 % of control | dose: 40.0 mg/kg/injection, schedule: Q01DX001 (ip), vehicle: Klucel (hydroxypropylcellulose) (HPC) 109 % of control | dose: 60.0 mg/kg/injection, schedule: Q01DX001 (ip), vehicle: Klucel (hydroxypropylcellulose) (HPC) 118 % of control
